From US20020137929A1, “1 - (3-heterocyclylphenyl) isothiourea, -isourea, -guanidine and -amidine herbicidal agents” (Intellectual Property Department, BASF Aktiengesellschaft, priority 1998, published 2002)

Key:
[1] = system: CHEAL (Lambsquarters, Common); experiment: Preemergence herbicidal evaluation; type: in vivo, Chenopodium album; conditions: rated 4-5 weeks after treatment
Method in brief: (§1)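 Seeds were mixed with potting soil and planted on about one inch of soil, then sprayed with test compound in aqueous acetone at about 0.0156 to 0.500 kg per hectare. Plants grew under standard greenhouse care and were visually rated 0-9 against untreated controls 4-5 weeks post-treatment.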

[2] = system: CYPIR (Rice Flatsedge); experiment: Postemergence weed control under flooded paddy conditions; type: in vivo, Cyperus iria; conditions: postemergence weeds, 3-4 weeks after treatment
Method in brief: (§2)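 Weeds 3 to 5 cm tall and rice seedlings at the 1.5 to 2.5 leaf stage were flooded, with water held 1.5 to 3 cm above the soil. Compounds in 50/50 v/v aqueous/acetone went into the flood water at about 0.0313 to 0.500 kg/ha. Visual 0-9 ratings versus control were made 3 to 4 weeks later.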

[3] = system: ECHORC (Watergrass (Calif.)); experiment: Preemergence weed control under flooded paddy conditions; type: in vivo, Echinochloa oryzoides; conditions: rated 3-4 weeks after treatment
Method in brief: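 Silt loam, seeds in top 0.5 cm; flood held 1.5-3 cm; test cpd as acetone/water 50/50 into flood water, ~0.0313-0.500 kg/ha a.i.; greenhouse 3-4 wk; visual 0-9 score vs control.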

[4] = system: ECHCG (Barnyardgrass); experiment: Preemergence herbicidal evaluation; type: in vivo, Echinochloa crus-galli; conditions: rated 4-5 weeks after treatment
Method in brief: as §1

[5] = system: SETVI (Foxtail, Green); experiment: Preemergence herbicidal evaluation; type: in vivo, Setaria viridis; conditions: rated 4-5 weeks after treatment
Method in brief: as §1

[6] = system: TRZAWR (Wheat, Winter, cv Riband); experiment: Postemergence herbicidal evaluation; type: in vivo, Triticum aestivum; conditions: postemergence
Method in brief: (§3)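 First, seedlings were raised for around two weeks. Next, test material in 50/50 acetone/water containing 0.5% TWEEN 20 was sprayed through a nozzle at 40 psi, equivalent to about 0.0156–0.500 kg/ha. Finally, after 4–5 weeks in the greenhouse, plants were rated 0–9.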

[7] = system: IPOHE (Morningglory, Ivyleaf); experiment: Preemergence herbicidal evaluation; type: in vivo, Ipomoea hederacea; conditions: rated 4-5 weeks after treatment
Method in brief: as §1

[8] = system: TRZAWR (Wheat, Winter, cv Riband); experiment: Preemergence herbicidal evaluation; type: in vivo, Triticum aestivum; conditions: rated 4-5 weeks after treatment
Method in brief: as §1

[9] = system: MOOVA (Monochoria); experiment: Preemergence weed control under flooded paddy conditions; type: in vivo, Monochoria vaginalis; conditions: rated 3-4 weeks after treatment
Method in brief: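 First, seeds or propagules go into the top 0.5 cm of silt loam; next, water is held 1.5 to 3 cm over the soil; then compound (50/50 acetone/water) is pipetted into it at about 0.0313 to 0.500 kg/ha; finally plants are rated visually 0-9 after three to four weeks.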

[10] = system: ECHORC (Watergrass (Calif.)); experiment: Postemergence weed control under flooded paddy conditions; type: in vivo, Echinochloa oryzoides; conditions: postemergence weeds, 3-4 weeks after treatment
Method in brief: as §2

[11] = system: IPOHE (Morningglory, Ivyleaf); experiment: Postemergence herbicidal evaluation; type: in vivo, Ipomoea hederacea; conditions: postemergence
Method in brief: as §3

[12] = system: ORYSAT (Rice, Tebonnet); experiment: Preemergence herbicidal evaluation; type: in vivo, Oryza sativa, (L.) Tebonnet; conditions: rated 4-5 weeks after treatment
Method in brief: as §1

[13] = system: ABUTH (Velvetleaf); experiment: Postemergence herbicidal evaluation; type: in vivo, Abutilon theophrasti; conditions: postemergence
Method in brief: as §3

CCOC(=O)CN1C(=O)C(=Cc2ccccc2)SC1=Nc1cc(-n2c(=O)cc(C(F)(F)F)n(C)c2=O)c(F)cc1Cl [Compound 19, Ethyl 5-benzylidene-2-{{2-chloro-5-[3,6-dihydro-3-methyl-2,6-dioxo-4-(trifluoromethyl)-1(2H)-pyrimidinyl]-4-fluorophenyl}imino}-4-oxo-3-thiazolidineacetate]
4.5: TRZAWR herbicidal rating ([6]; rate 0.0630 kg/ha)
2.0: IPOHE herbicidal rating ([11]; rate 0.0158 kg/ha)
7.0: Herbicidal rating ECHORC ([3]; 0.1160 kg/ha) | Herbicidal rating ECHORC ([3]; 0.2310 kg/ha) | Herbicidal rating ECHORC ([10]; rate 0.1160 kg/ha) | Herbicidal rating ECHORC ([10]; rate 0.2310 kg/ha)
4.0: TRZAWR herbicidal rating ([6]; rate 0.0315 kg/ha)
3.0: TRZAWR herbicidal rating ([6]; rate 0.0158 kg/ha)
5.0: IPOHE herbicidal rating ([11]; rate 0.0630 kg/ha)
9.0: CHEAL preemergence herbicidal rating ([1]; rate 0.1250 kg/ha) | CHEAL preemergence herbicidal rating ([1]; rate 0.2500 kg/ha) | Herbicidal rating ECHORC ([3]; 0.4630 kg/ha) | Herbicidal rating MOOVA ([9]; 0.1160 kg/ha) | Herbicidal rating MOOVA ([9]; 0.2310 kg/ha) | Herbicidal rating MOOVA ([9]; 0.4630 kg/ha) | Herbicidal rating ECHORC ([10]; rate 0.4630 kg/ha) | IPOHE herbicidal rating ([11]; rate 0.0315 kg/ha) | ABUTH herbicidal rating ([13]; rate 0.0158 kg/ha) | ABUTH herbicidal rating ([13]; rate 0.0315 kg/ha) | ABUTH herbicidal rating ([13]; rate 0.0630 kg/ha)
0.0: Herbicidal rating CYPIR ([2]; rate 0.1160 kg/ha) | Herbicidal rating CYPIR ([2]; rate 0.2310 kg/ha) | Herbicidal rating CYPIR ([2]; rate 0.4630 kg/ha) | ECHCG preemergence herbicidal rating ([4]; rate 0.1250 kg/ha) | ECHCG preemergence herbicidal rating ([4]; rate 0.2500 kg/ha) | SETVI preemergence herbicidal rating ([5]; rate 0.1250 kg/ha) | SETVI preemergence herbicidal rating ([5]; rate 0.2500 kg/ha) | IPOHE preemergence herbicidal rating ([7]; rate 0.1250 kg/ha) | IPOHE preemergence herbicidal rating ([7]; rate 0.2500 kg/ha) | TRZAWR preemergence herbicidal rating ([8]; rate 0.1250 kg/ha) | TRZAWR preemergence herbicidal rating ([8]; rate 0.2500 kg/ha) | ORYSAT preemergence herbicidal rating ([12]; rate 0.1250 kg/ha) | ORYSAT preemergence herbicidal rating ([12]; rate 0.2500 kg/ha)
